According to patent US20240189440A1, “TLR7 AND TLR8 AGONISTS FOR THE TREATMENT OF CANCER AND/OR INFECTIOUS DISEASES” (priority 2021, published 2024):
Where two headings read alike, the source gives them in different places.

Columns and labels:
[1] = test system: HBV infected primary human hepatocytes; conditions: Tsai et al. 2017, Bam et al. 2016; cited from earlier work
[2] = patients with mild allergic asthma; Tsitoura et al. 2015; cited from earlier work
[3] = test system: NFκB pathway in Ramos-blue cells; experiment: Ramos-Blue NFκB/SEAP reporter assay with cysteine-capped linker-payloads, 72 h (Example 15); assay type: cell-based; conditions: read-out: Relative Activation
Description: A 50 mM cysteine stock was prepared in 0.1 M PBS pH 7.4. 10 equivalents of 50 mM cysteine were added to 1 equivalent of linker-payload to create a 2.50 mM solution. The reaction was vortexed and sat at room temperature for an hour to allow for the Michael addition to occur. After an hour, an aliquot was taken and run via UPLC-MS to ensure for the complete Michael reaction. The reaction was diluted to 1 mM using 0.1M PBS pH 7.4. The 1 mM solution was diluted to 500 uM and 50 uM in a 96-well plate to afford a final concentration of 50 uM and 5 uM in the cell suspension. The cell density and viability were calculated using the Countess Cell Counter and the proper volume of cells was removed in order to have a seeding density of 0.2×10^6 cells/mL per well. 135 uL of cell suspension was added to each well in a 96-well plate along with 15 uL of the corresponding linker-payload treatment. Each concentration was run in triplicate and incubated at 37° C. with 5% CO2 for 72 hours.
Invivogen's QUANTI-Blue™ solution was prepared by adding 200 uL of QB reagent and 200 uL of QB buffer to 19.6 mL of water. The resulting solution was vortexed and incubated at room temperature for ten minutes. The 96-well plate was centrifuged at 1990 rpm for ten minutes. Then, 40 uL of cell supernatant was added to 160 uL of the prepared QUANTI-Blue™ solution and incubated at 37° C. for 24 hours. The plate was read using the Molecular Devices i3x plate reader at a wavelength of 630 nm to determine the amount of SEAP production.

hepatitis C virus = conditions: treatment of hepatitis C virus; Fidock et al. 2011; cited from earlier work
[4] = Linker-Payload Dose 5 uM, cysteine-capped, 72 hours, SEAP at 630 nm
[5] = Linker-Payload Dose 50 uM, cysteine-capped, 72 hours, SEAP at 630 nm

SMILES	activation at 5 µM [3, 4] [%]	activation at 50 µM [3, 5] [%]	other results
CCCCOc1nc(N)c2c(n1)N(Cc1cccc(CN3CCCC3)c1)CC(=O)N2 [GS-9620]	–	–	Antiviral activity [1]: no antiviral activity
CCC[C@H](C)Oc1nc(N)c2[nH]c(=O)n(CCCCCN3CCCCC3)c2n1 [GSK-2245035]	–	–	Efficacy on allergen-induced asthmatic response [2]: lack efficacy
CCCCc1nc2c(N)nc3ccccc3c2n1Cc1ccc(NC(=O)CCCCCN2C(=O)C=CC2=O)cc1 [Mc_E104, N-(4-((4-amino-2-butyl-1H-imidazo[4,5-c]quinolin-1-yl)methyl)phenyl)-6-(2,5-dioxo-2,5-dihydro-1H-pyrrol-1-yl)hexanamide]	704	-52	–
CCc1nc2c(N)nc3ccccc3c2n1CCCCNS(C)(=O)=O [PF-4878691]	–	–	Therapeutic index (hepatitis C virus): low therapeutic index
CCOCc1nc2c(NC(=O)OCc3ccc(NC(=O)C(CCCNC(N)=O)NC(=O)C(NC(=O)CCCCCN4C(=O)C=CC4=O)C(C)C)cc3)nc3ccccc3c2n1CC(C)(C)O (stereo not shown) [Mc_ValCitPABC_Resiquimod, 4-(2-(2-(6-(2,5-Dioxo-2,5-dihydro-1H-pyrrol-1-yl)hexanamido)-3-methylbutanamido)-5-ureidopentanamido)benzyl 2-(ethoxymethyl)-1-(2-hydroxy-2-methylpropyl)-1H-imidazo[4,5-c]quinolin-4-ylcarbamate]	18.6	-20.8	–
CCOCc1cc2c(NC(=O)C(CCCNC(N)=O)NC(=O)C(NC(=O)CCCCCN3C(=O)C=CC3=O)C(C)C)nc3ccccc3c2n1CC(C)(C)O (stereo not shown) [Mc_ValCit_Resiquimod, 6-(2,5-Dioxo-2,5-dihydro-1H-pyrrol-1-yl)-N-(1-(1-(2-(ethoxymethyl)-1-(2-hydroxy-2-methylpropyl)-1H-pyrrolo[3,2-c]quinolin-4-ylamino)-1-oxo-5-ureidopentan-2-ylamino)-3-methyl-1-oxobutan-2-yl)hexanamide]	–	–	activation at 5 µM ([3]; 72 h): 11.4%; activation at 50 µM ([3]; 72 h): -23.1%
CCCCc1nc2c(N)nc3ccccc3c2n1Cc1ccc(CNC(=O)CCCCCN2C(=O)C=CC2=O)cc1 [Mc_E66, N-(4-((4-amino-2-butyl-1H-imidazo[4,5-c]quinolin-1-yl)methyl)benzyl)-6-(2,5-dioxo-2,5-dihydro-1H-pyrrol-1-yl)hexanamide]	119	-52.3	–
CCCCc1nc2c(N)nc3ccccc3c2n1Cc1ccc(NC(=O)C(CCCNC(N)=O)NC(=O)C(NC(=O)CCCCCN2C(=O)C=CC2=O)C(C)C)cc1 (stereo not shown) [Mc_ValCit_E104, N-(1-(1-(4-((4-amino-2-butyl-1H-imidazo[4,5-c]quinolin-1-yl)methyl)phenylamino)-1-oxo-5-ureidopentan-2-ylamino)-3-methyl-1-oxobutan-2-yl)-6-(2,5-dioxo-2,5-dihydro-1H-pyrrol-1-yl)hexanamide]	238	-50.9	–
